Experimental data published in US20040192928A1, “Novel compounds of the family of 3-alkyl-(4,5-diphenyl-imidazol-1-yl) and their use as soothing agents” (priority 2001, published 2004).

Test system: interleukin-8 secreted by normal human epidermal keratinocytes (NHEKs)
Experiment: Inhibition of IL-8 secretion by NHEKs after stimulation with PMA (anti-irritant test)
Format: cell-based
Conditions: NHEK, test compounds at 10 μM, NHEKs with 160 nM PMA, 24 hours at 37° C., IL-8 by ELISA
Source text: Inhibition of the response of superficial epidermal cells to an irritant agent by assay of the interleukin-8 secreted by normal human epidermal keratinocytes (NHEKs) after stimulation with phorbol 12-myristate 13-acetate (PMA) as irritant agent.
This study uses the test developed by Wilmer [Wilmer, J. L. et al., J. invest. Dermatol., 102: 915-922 (1994)]. This test allows the evaluation of the antiirritant potential of various molecules, on a human keratinocyte (NHEK) cell line. In this test, an irritant situation is mimicked by exacerbating the production of IL-8 of the NHEKs by adding PMA to the culture medium, IL-8 being involved in initiating the keratinocyte irritation. The antiirritant effect of a molecule is then measured by means of its inhibitory action with respect to this exacerbated production.
Normal human epidermal keratinocytes (NHEKs) sold by the company Clonetics and distributed in France by the company TEBU are incubated in the presence of 160 nM of PMA for 24 hours at 37° C. In response to the PMA, the production of the chemotactic agent interleukin-8 (IL-8) is measured by enzymatic assay using an assay kit (Elisa D8050) sold by the company R&D. The absorbance values are measured using a microplate reader (MRX/Dynatech) according to the procedures supplied with. the assay kit. […]

SMILES | inhibition at 10 µM [%]
c1ccc(OCCCn2cnc(-c3ccccc3)c2-c2ccccc2)cc1 [3-phenoxypropyl(4,5-diphenylimidazol)-1-yl] | 32
c1ccc(COCCCn2cnc(-c3ccccc3)c2-c2ccccc2)cc1 [Example 1, 3-benzyloxypropyl-(4,5-diphenylimidazol)-1-yl] | 41
